Reference: PMC12135181, “The mechanism of lineage-specific tRNA recognition by bacterial tryptophanyl-tRNA synthetase and its implications for inhibitor discovery” (Nucleic Acids Research, 2025)
Like-named read-outs stand apart in the source and are kept apart here.

Legend:
EcTrpRS [1] = molecular target: T1, EcTrpRS (Escherichia coli, UniProt P00954); experiment: Isothermal titration calorimetry (ITC) to EcTrpRS; assay type: binding
T1 construct: hexahistidine tag (C); made in house; host or cells: Escherichia coli BL21(DE3)
Method: (§1) The binding affinities of various compounds to EcTprRS were measured using a MicroCal VP-ITC microcalorimeter (MicroCal). Compounds at a concentration of 200 μM were titrated into 20 μM of EcTrpRS in PBS (phosphate buffered saline) buffer (137 mM NaCl, 2.7 mM KCl, 8 mM Na2HPO4, and 2 mM KH2PO4). The titration assays were conducted at 26°C, beginning with an initial injection of 0.4 μl, followed by 18 injections of 2 μl each, with an interval of 120 s between each injection. The dissociation constants (Kd) were calculated by fitting the calorimetric data to a one-site binding model using MicroCal PEAQ-ITC analysis software, with the reported errors in Kd values representing the curve fitting errors. All isothermal titration calorimetry (ITC) experiments were repeated at least twice, and the titrations of compounds to HcTrpRS were also performed for comparison.

HcTrpRS = molecular target: T2, HcTrpRS (Homo sapiens, UniProt P23381); experiment: Isothermal titration calorimetry (ITC) to HcTrpRS; assay type: binding
T2 construct: made in house
T2 sequence (P23381 1-471): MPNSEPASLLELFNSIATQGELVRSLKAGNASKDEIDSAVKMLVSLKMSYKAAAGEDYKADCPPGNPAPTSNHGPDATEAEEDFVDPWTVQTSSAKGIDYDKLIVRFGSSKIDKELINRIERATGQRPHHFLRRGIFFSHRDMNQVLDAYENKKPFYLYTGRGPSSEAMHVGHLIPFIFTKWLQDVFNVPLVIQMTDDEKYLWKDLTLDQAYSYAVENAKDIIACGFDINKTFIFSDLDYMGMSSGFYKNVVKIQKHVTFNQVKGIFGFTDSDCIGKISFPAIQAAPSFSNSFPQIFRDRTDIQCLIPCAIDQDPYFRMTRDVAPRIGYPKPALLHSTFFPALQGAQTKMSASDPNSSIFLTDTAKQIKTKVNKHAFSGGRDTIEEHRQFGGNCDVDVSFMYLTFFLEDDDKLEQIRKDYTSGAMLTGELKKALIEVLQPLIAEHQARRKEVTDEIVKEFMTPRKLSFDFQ
Method: as §1

EcTrpRS [2] = molecular target: T1, EcTrpRS; experiment: Pyrophosphate (PPi) production assay; assay type: biochemical; conditions: 10 μM compound, average of three; for inhibition at 10 µM: read-out: Inhibitory rate of PPi production activity of EcTrpRS
Method: The inhibitory effects of various compounds of EcTrpRS were evaluated using a pyrophosphate (PPi) production assay. EcTrpRS was incubated with 10 μM (in 0.1% DMSO) of each compound for 10 min at room temperature. […] The mixture was incubated at 26°C for 45 min, after which 40 μl of malachite green reagent was added to terminate the reaction and develop color. Following an additional incubation of 10 min, the absorbance (A) was measured at 640 nm using a Synergy H1 microplate reader (BioTek). The absorbance of the reaction without adding a compound was designated as A1, the absorbance of the reaction without adding EcTrpRS was A0, and the absorbance of the reaction with the addition of a compound was AC. The inhibitory rates of compounds on enzyme activity were calculated as (A1 − AC)/(A1 − A0) × 100%. Each reaction was performed in triplicate.

EcTrpRS [3] = molecular target: T1, EcTrpRS; assay type: binding
[4] = no tRNA, no ATP, 26°C, PBS, read-out: Kd for binding to EcTrpRS (ITC)

Row | Structure (SMILES) | inhibition at 10 µM (EcTrpRS [2]) [%] | Change of ΔTm of EcTrpRS with compound after addition of tRNA^Trp (EcTrpRS [3]) | Inhibitory rate of PPi production activity of EcTrpRS (EcTrpRS [2]; 10 µM) | further results
1 | N[C@@H](Cc1c[nH]c2ccccc12)C(=O)O [L-Trp, tryptophan] |  |  |  | Binding to EcTrpRS (ITC) (EcTrpRS [1]; in the presence of 200 μM N-piperidine ibrutinib): no binding; Kd (EcTrpRS [1]; [4]): 40200 ± 4800 nM
2 | CC#CC(=O)N1CC[C@@H](n2c(=O)n(-c3ccc(Oc4ccccc4)cc3)c3c(N)ncnc32)C1 [tirabrutinib] | 50 | reduced |  | Binding affinity for HcTrpRS (ITC) (HcTrpRS): no binding affinities; Kd (EcTrpRS [1]; [4]): 4800 ± 200 nM
3 | C=CC(=O)N1CCC[C@@H](n2c(=O)n(-c3ccc(Oc4ccccc4)cc3)c3c(N)nccc32)C1 [tolebrutinib] | 19 | reduced |  | 
4 | CN=C1NC(=O)[C@H]([C@H](C)c2c[nH]c3ccccc23)O1 [indolmycin] | 93 |  |  | Kd (EcTrpRS [1]; in the absence of ATP, read-out: Kd (binding affinity) to EcTrpRS (ITC)): 804 ± 54 nM; Kd (EcTrpRS [1]; in the presence of 1 mM ATP, read-out: Kd (binding affinity) to EcTrpRS (ITC)): 503 ± 31 nM
5 | Nc1ncnc2c1c(-c1ccc(Oc3ccccc3)cc1)nn2C1CCCC1 [PCI-29732] |  |  | nor did they exhibit considerable inhibitory rates | Inhibitory rate of PPi production activity of EcTrpRS (EcTrpRS [2]; listed as 7, 10 µM): < 5%
6 | C=CC(=O)N1CCC[C@H](n2c(=O)n(-c3ccc(Oc4ccccc4)cc3)c3c(N)ncnc32)C1 [ONO-4059 analogue] | 38 | reduced |  | 
7 | Nc1ncnc2c1c(-c1ccc(Oc3ccccc3)cc1)nn2[C@@H]1CCCNC1 [IBT6A] |  |  | nor did they exhibit considerable inhibitory rates | Inhibitory rate of PPi production activity of EcTrpRS (EcTrpRS [2]; listed as 6, 10 µM): 9%
8 | C=CC(=O)N1CCC[C@@H](n2nc(-c3ccc(Oc4ccccc4)cc3)c3c(N)ncnc32)C1 [ibrutinib] | 12 |  |  | Inhibitory rate of PPi production activity of EcTrpRS (EcTrpRS [2]): nor did they exhibit considerable inhibitory rates; ΔTm of EcTrpRS (EcTrpRS [3]): did not produce significant changes
9 | Nc1ncnc2n[nH]c(-c3ccc(Oc4ccccc4)cc3)c12 [IBT4A] |  |  | nor did they exhibit considerable inhibitory rates | Inhibitory rate of PPi production activity of EcTrpRS (EcTrpRS [2]; listed as 8, 10 µM): < 5%
